# Assay results published in patent US10213451B2, “Methods and compounds for modulating the secretion or expression of adhesion proteins or angiopoietins of cells” (PACIFIC ARROW LIMITED, priority 2004, dated 2019).
# Where two headings read alike, the source gives them in different places.
# Columns and labels:
# [1] = test system: tumor growth; assay: MTT anticancer activity of Y, X and hydrolysis products (FIG. 4C); format: cell-based; details: for IC50: read-out: IC50, inhibits tumor growth / anticancer activity
# Outline: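 Tumour cell lines seeded 24 h beforehand (10,000–40,000/well by line), then exposed to drug for 48 h (HepG2, U2OS 72 h; MCF-7 96 h). MTT 0.5 mg/mL added for 1 h, formazan dissolved in DMSO, OD 490 nm. % growth relative to pre-treatment (T0) and control; % cytotoxicity used when TD<T0.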
# [2] = test system: integrin expression in ES2 cells; assay: Microarray gene expression, Table 6; format: cell-based, human; details: for ITGA3 integrin, alpha 3, gene expression ratio to no drug control (D): probe 201474_s_at; for ITGAV integrin, alpha V (vitronectin receptor), gene expression ratio to no drug control (D): probe 202351_at; for ITGB5 Integrin, beta 5, gene expression ratio to no drug control (D): probe 214021_x_at; for CD47 antigen (integrin-associated signal transducer), gene expression ratio to no drug control (D): probe 227259_at; for ITGB2 integrin, beta 2, gene expression ratio to no drug control (D): probe 1555349_a_at; for expression ratio to the control, integrin family: span over probes of Table 6
# Procedure: (§1) Y/D is the ratio (in folds) of gene expression in cells treated with compound Y as compared with those of the no drug control (D),
# (§2) YM/D is the ratio of gene expression in cells treated with compound YM (ACH-Y, Y without sugar moiety) compared with those of the no drug control (D)
# (§3) Cell culture and drug-treatment.: ES2 cells were seeded in a T-25 flask with 4.5 million cells per flask for 24 hours. Cell culture was replaced with fresh medium with xanifolia-Y (Y) or DMSO no drug control (D) for 24 hours. Cells were then harvested for RNA isolation. Three experiments were done.
# (§4) RNA extraction, labeling, hybridization, and data analysis. RNA was extracted from tumor cells using the Qiagen RNeasy Kit. RNA quality and quantity was checked by the Agilent BioAnalyzer and the NanoDrop® ND-1000 spectrophotometer respectively before further manipulation. The first and second cDNA strands were synthesized from 20 ng of total RNA using the Affymetrix T7 oligo(dT) primer protocol and kit for the two-cycle amplification. To produce amplified biotin-labeled-cRNA, the cDNA was […] by in vitro transcription using the MegaScript kit from Ambion. 15.0 μg of the labeled cRNA was fragmented and re-checked for concentration using the NanoDrop® ND-1000 spectrophotometer. A hybridization cocktail containing Affymetrix spike-in controls and fragmented labeled cRNA was loaded onto the Human U133 Plus 2.0 GeneChip® oligonucleotide array. The Affymetrix array (Affymetrix, Inc. Santa Clara, Calif.) is comprised of over 1,300,000 unique oligonucleotide features that represent greater than 38,500 well-substantiated human genes. The array was hybridized for 16 hours at 45° C. with rotation at 60 rpm then washed and stained with a strepavidin, R-phycoerythrin conjugate stain on the Affymetrix Fluidicis Station 450. Signal amplification was done using biotinylated antistreptavidin. The arrays were scanned using the GeneChip® 3000 confocal laser scanner with autoloader. The images were analyzed and quality control metrics recorded using Affymetrix GCOS software version 1.4. Lastly, the expression value for each gene was calculated using dChip PM-only model based or Plier algorithm.
# (§5) Pairwise comparisons were made as follows: Treated vs. Control (Y vs. D), Modified Drug vs Control (YM/ACY-H vs. D) and Treated vs. Modified Drug (Y vs. YM/ACH-Y) Cel files analyzed using the Bioconductor package of R Statistical programming. Limma analysis generated a reasonable number of changing genes between the samples.
# (§6) The raw data in the .CEL files were normalized by the GCRMA method (robust multi-array analysis). It is implemented in Bioconductor (http://www.bioconductor.org/). The raw signal intensity data were normalized, background corrected and summarized based on certain statistical models, and an expression value, in log 2-scale, is obtained per chip per probe set. Then the null hypothesis was tested that there's no significant changes in gene expression between the treatment pairs. This was done by LIMMA and is also implemented in Bioconductor. It uses empirical Bayes method to estimate the variance in gene expression. One comparison was made, namely, High Grade vs. Low Grade. The raw p-values were adjusted by the Benjamnin-Hochberg method for false discovery rate (FDR) control. All data sets contained a significant number of genes with a p-value less than 0.05, which is that the probability that a gene is NOT differential expressed (false positive) is 1:20.
# [3] = test system: phosphatase, protein expression in ES2 cells; assay: Microarray gene expression, Table 19; format: cell-based, human
# Procedure: as §1, §2, §3, §4, §5, §6
# [4] = test system: Fibronectin secretion from lung carcinoma cells (H460); assay: Fibronectin secretion (Western blot), H460 cells; format: cell-based, human; details: for % inhibition of Fibronectin secretion: H460 cells
# [5] = test system: Fibronectin secretion from skin SK-Mel-5 cells; assay: Fibronectin secretion (Western blot), SK-MEL-5 cells; format: cell-based, human; details: Homo sapiens
# [6] = test system: Glypican expression in ES2 cells; assay: Microarray gene expression, Table 13; format: cell-based, human
# Procedure: as §1, §2, §3, §4, §5
# The raw data in the .CEL files were normalized by the GCRMA method (robust multi-array analysis). It is implemented in Bioconductor (http://www.bioconductor.org/). […]
Structure (SMILES),IC50 ([1]; FIG. 4C) [µg/mL],"ITGA3 integrin, alpha 3, gene expression ratio to no drug control (D) [2] [folds]","ITGA6 integrin, alpha 6, gene expression ratio to no drug control (D) ([2]; probe 201656_at) [folds]","ITGAV integrin, alpha V (vitronectin receptor), gene expression ratio to no drug control (D) [2] [folds]","ITGBL1 Integrin, beta-like 1, gene expression ratio to no drug control (D) ([2]; probe 205422_s_at) [folds]","ITGA4 integrin, alpha 4, gene expression ratio to no drug control (D) ([2]; probe 205884_at) [folds]","ITGA4 integrin, alpha 4, gene expression ratio to no drug control (D) ([2]; probe 205885_s_at) [folds]","ITGA4 integrin, alpha 4, gene expression ratio to no drug control (D) ([2]; probe 213416_at) [folds]","ITGB5 Integrin, beta 5, gene expression ratio to no drug control (D) [2] [folds]","ITGBL1 Integrin, beta-like 1, gene expression ratio to no drug control (D) ([2]; probe 214927_at) [folds]","ITGA6 integrin, alpha 6, gene expression ratio to no drug control (D) ([2]; probe 215177_s_at) [folds]","CD47 antigen (integrin-associated signal transducer), gene expression ratio to no drug control (D) [2] [folds]","ITGB2 integrin, beta 2, gene expression ratio to no drug control (D) [2] [folds]","ITGBL1 Integrin, beta-like 1, gene expression ratio to no drug control (D) ([2]; probe 1557080_s_at) [folds]","expression ratio to the control, integrin family [2] [folds]","PPP1R15A protein phosphatase 1, regulatory (inhibitor) subunit 15A, gene expression ratio to no drug control (D) ([3]; probe 37028_at) [folds]","PPP1R15A protein phosphatase 1, regulatory (inhibitor) subunit 15A, gene expression ratio to no drug control (D) ([3]; probe 202014_at) [folds]","DUSP10 dual specificity phosphatase 10, gene expression ratio to no drug control (D) ([3]; probe 215501_s_at) [folds]","DUSP10 dual specificity phosphatase 10, gene expression ratio to no drug control (D) ([3]; probe 221563_at) [folds]","GPC6 Glypican 6, gene expression ratio to no drug control (D) ([6]; probe 227059_at) [folds]",other results
C/C=C(/C)C(=O)O[C@H]1[C@H](OC(=O)/C(C)=C\C)[C@@]2(CO)C(CC1(C)C)C1=CCC3[C@@]4(C)CC[C@H](O)C(C)(C)C4CC[C@@]3(C)[C@]1(C)[C@@H](O)[C@H]2O (stereo partly shown) [ACH-Y],9.5,−1.5,−1.1,−1.3,−2.0,−1.7,−2.0,−1.7,−2.2,−1.8,1.1,−1.1,−1.4,−2.5,−1.1 to −2.5,5.6,6.2,7.1,5.7,−1.8,"MTT activities of hydrolysed products of compound Y ([1]; FIG. 4C, 4D): very weak; anticancer activity retained after removal of sugars from Y ([1]; relative to Y): 40%; inhibition at 20 µg/mL ([4]; Homo sapiens, NCI-H460, H460 cells, 20 ug/ml): 28%; inhibition at 30 µg/mL ([5]; 30 ug/ml): 21%; GPC6 Glypican 6, gene expression ratio to no drug control (D) ([6]; probe 243865_x_at): −2.0 folds"
"C/C=C(/C)C(=O)O[C@H]1[C@H](OC(=O)/C(C)=C\C)[C@@]2(CO)C(CC1(C)C)C1=CCC3[C@@]4(C)CC[C@H](O[C@@H]5OC(C(=O)O)[C@@H](O)C(O[C@@H]6O[C@@H](CO)C(O)C6O)C5O[C@@H]5OC(CO)[C@H](O)C(O)C5O)C(C)(C)C4CC[C@@]3(C)[C@]1(C)[C@@H](O)[C@H]2O (stereo partly drawn) [Xanifolia-Y, 3-O-[β-D-galactopyranosyl (1→2)]-α-L-arabinofuranosy (1→3)-β-D-glucuronopyranosyl-21,22-O-diangeloyl-3β, 15α, 16α, 21β, 22α, 28-hexahydroxyolean-12-ene]",4,−1.6,−1.5,−1.8,−1.9,−1.6,−1.7,−1.6,−1.5,−1.7,−1.6,−1.6,−1.6,−1.7,−1.5 to −1.9,2.4,2.6,3.2,3.8,−2.2,"IC50 [1]: 1.5 to 4.5 µg/mL; % inhibition of Fibronectin secretion ([4]; 20 ug/ml): 20-60%; % inhibition of Fibronectin secretion ([4]; 20 ug/ml, listed as Y): over 60%; inhibition at 10 µg/mL ([4]; Homo sapiens, NCI-H460, H460 cells, 10 ug/ml): 19%; inhibition at 10 µg/mL ([5]; 10 ug/ml): 11%; inhibition at 20 µg/mL ([5]; 20 ug/ml): 40 to 57%; GPC6 Glypican 6, gene expression ratio to no drug control (D) ([6]; probe 243865_x_at): −2.7 folds"
